Laboratory results as given in patent US20090142370A1, “Method for preventing skin-cellular aging by using green algae extract and cosmetic composition containing green algae extract” (priority 2007, published 2009).

Legend:
Type in all cases: cell-based
MMP [1] = experiment: UVB-induced MMP in fibroblasts, quantified (FIG. 5); settings: no UV about 3.5, UV alone about 6.0 ng/mL
Protocol: (§1) The experiments are conducted under two kinds of conditions, wherein one uses phorbol 12-myristate 13-acetate (PMA) to induce skin-cells to produce MMP while the other uses UVB to induce skin-cells to produce MMP and the inhibitory effects of the green algae extract of the present invention on MMP produced under both conditions are tested.

MMP [2] = experiment: PMA-induced MMP production in fibroblasts, quantified (FIG. 1); settings: 5-hour incubation, control about 25, PMA alone about 70 ng/mL
Protocol: as §1
As known by those skilled in the art, PMA is an activator of protein kinase C (PKC) in fibroblasts, and PKC is an activator of MMP. Further, unduly activated MMP can break collagens as well as elastins in fibroblasts and in turn lead to aged skin. In the experiment shown in FIG. 1, Rectangle (1) belongs to a control group; Rectangle (2) belongs to a comparison group; and Rectangles (3), (4), (5) and (6) belong to an experimental group. A 5-hour incubation is conducted in each of the groups.

MMP [3] = experiment: PMA-induced MMP in fibroblasts, Western blotting (FIG. 2); settings: 100 nM PMA + 0.4 nM GM
Source text: The images in the upper picture represent MMP expressions while the images in the lower picture are provided as a house keeping gene expressed protein.

TIMP3 = experiment: PMA-induced gene expression in fibroblasts, RT-PCR (FIG. 4); settings: 100 nM PMA + 0.4 nM GM
Source text: (§2) The […] inhibitor proteins TIMP1 and TIMP3 exist in fibroblasts to counterbalance metalloproteinases MMP1 and MMP3.

TIMP1 = experiment: as above; settings: 100 nM PMA + 0.4 nM GM
Source text: as §2

MMP3 = experiment: as above; settings: 100 nM PMA + 0.4 nM GM
Source text: as §2

## O=C1O[C@H]([C@@H](O)CO)C(O)=C1O [Vitamin C]
MMP [1]; 0.15 mM Vitamin C added before 1.5 hours UV
  average content of MMP: 9.0 ng/mL
MMP [2]; 100 nM PMA + 0.15 nM Vitamin C
  average content of MMP: about 60 ng/mL

## CNC(=O)[C@H](Cc1c[nH]c2ccccc12)NC(=O)[C@@H](CC(=O)NO)CC(C)C [GM]
MMP [3]
  MMP activity (Western blot) compared with PMA alone: slightly inhibits
TIMP3
  TIMP3 genetic expression (RT-PCR) compared with PMA alone: fails to significantly enhance
TIMP1
  TIMP1 genetic expression (RT-PCR) compared with PMA alone: fails to significantly enhance
MMP3
  MMP3 mRNA expression (RT-PCR) compared with PMA alone: less
MMP [2]; 100 nM PMA + 0.4 nM GM
  average content of MMP: about 50 ng/mL

## Vitamin E
MMP [1]; 25 uM Vitamin E added before 1.5 hours UV
  average content of MMP: 6.0 ng/mL
